The values below come from US9695171B2, “3,4-disubstituted-1 H-pyrrolo[2,3-b]pyridines and 4,5-disubstituted-7H-pyrrolo[2,3-c]pyridazines as LRRK2 inhibitors” (Pfizer Inc., priority 2013, dated 2017).

SMILES strings stand for the structures.

The experiment concerns the target T1, GST-tagged truncated LRRK2 (Homo sapiens, UniProt Q5S007).
T1 construct: GST-tagged truncated LRRK2 from Invitrogen (Cat # PV4874); GST; purchased Invitrogen PV4874
In words: LRRK2 kinase assay (Lantha Screen). In kind it is biochemical. Particulars: 1 mM ATP (head); a = geometric mean of >=4 determinations, b = single determination; read-out: LRRK2 LANTHA EC50 at 1 mM ATP; Geometric mean of 2-3 determinations unless otherwise indicated.

T1 sequence (Q5S007 970-2527 limits assumed): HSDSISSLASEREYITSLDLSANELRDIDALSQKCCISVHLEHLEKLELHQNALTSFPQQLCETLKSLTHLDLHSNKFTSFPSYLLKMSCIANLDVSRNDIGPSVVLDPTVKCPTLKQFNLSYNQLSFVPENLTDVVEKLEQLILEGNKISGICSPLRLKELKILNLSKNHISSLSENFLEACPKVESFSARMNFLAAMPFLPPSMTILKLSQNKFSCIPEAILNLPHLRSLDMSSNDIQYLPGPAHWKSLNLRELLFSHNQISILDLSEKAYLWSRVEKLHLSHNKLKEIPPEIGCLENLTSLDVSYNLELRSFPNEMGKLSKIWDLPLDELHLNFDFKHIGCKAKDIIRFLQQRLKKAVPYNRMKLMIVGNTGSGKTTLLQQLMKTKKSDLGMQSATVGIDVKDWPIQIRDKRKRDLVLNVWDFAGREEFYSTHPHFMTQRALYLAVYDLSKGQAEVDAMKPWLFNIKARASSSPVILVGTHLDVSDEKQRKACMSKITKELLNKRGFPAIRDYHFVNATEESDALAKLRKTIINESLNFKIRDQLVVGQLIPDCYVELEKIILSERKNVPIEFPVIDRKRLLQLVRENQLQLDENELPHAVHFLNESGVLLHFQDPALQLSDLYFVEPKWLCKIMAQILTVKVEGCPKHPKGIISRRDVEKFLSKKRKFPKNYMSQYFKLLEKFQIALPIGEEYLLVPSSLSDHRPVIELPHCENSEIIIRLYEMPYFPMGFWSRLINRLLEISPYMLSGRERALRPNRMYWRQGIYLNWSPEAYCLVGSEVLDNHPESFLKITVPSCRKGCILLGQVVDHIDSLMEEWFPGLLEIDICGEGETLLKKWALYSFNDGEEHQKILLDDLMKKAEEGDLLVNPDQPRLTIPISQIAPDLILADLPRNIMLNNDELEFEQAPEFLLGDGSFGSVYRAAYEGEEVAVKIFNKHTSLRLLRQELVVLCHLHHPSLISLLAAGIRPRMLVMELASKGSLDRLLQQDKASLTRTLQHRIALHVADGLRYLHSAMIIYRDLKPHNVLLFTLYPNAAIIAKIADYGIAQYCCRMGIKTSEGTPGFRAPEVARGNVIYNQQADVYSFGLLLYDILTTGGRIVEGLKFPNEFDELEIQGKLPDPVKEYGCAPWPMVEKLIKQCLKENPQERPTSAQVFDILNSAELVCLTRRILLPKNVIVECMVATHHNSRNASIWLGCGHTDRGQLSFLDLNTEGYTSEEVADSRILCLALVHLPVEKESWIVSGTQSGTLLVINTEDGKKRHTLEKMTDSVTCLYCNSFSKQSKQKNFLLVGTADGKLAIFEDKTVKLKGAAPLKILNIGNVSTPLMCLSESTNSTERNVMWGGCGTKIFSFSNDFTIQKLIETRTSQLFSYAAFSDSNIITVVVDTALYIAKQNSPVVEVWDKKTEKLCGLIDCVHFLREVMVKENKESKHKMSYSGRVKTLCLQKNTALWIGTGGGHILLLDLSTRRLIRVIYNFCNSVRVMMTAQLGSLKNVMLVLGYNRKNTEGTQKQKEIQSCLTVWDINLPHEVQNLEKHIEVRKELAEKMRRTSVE

As to `Cn1cc(-c2ccnc3[nH]cc(-c4cccc(C#N)c4)c23)cn1` [Example 101, 3-[4-(1-methyl-1H-pyrazol-4-yl)-1H-pyrrolo[2,3-b]pyridin-3-yl]benzonitrile], the EC50 (usually the concentration giving half of the maximal effect) was determined as 101 nM.
For the compound `Cn1cc(-c2c[nH]c3nccc(-c4ccncc4)c23)cn1` [Example 102, 3-(1-methyl-1H-pyrazol-4-yl)-4-(pyridin-4-yl)-1H-pyrrolo[2,3-b]pyridine], the EC50 was found to be 102 nM.
On to `Cn1cc(-c2c[nH]c3nccc(-c4cc(F)cc(F)c4)c23)cn1` [Example 103, 4-(3,5-difluorophenyl)-3-(1-methyl-1H-pyrazol-4-yl)-1H-pyrrolo[2,3-b]pyridine], for which the EC50 is 125 nM.
As to `COc1ccc(-c2ccnc3[nH]cc(-c4cnn(C)c4)c23)cc1F` [Example 104, 4-(3-fluoro-4-methoxyphenyl)-3-(1-methyl-1H-pyrazol-4-yl)-1H-pyrrolo[2,3-b]pyridine], the EC50 worked out at 138 nM.
Take `COc1ccc(-c2ccnc3[nH]cc(-c4cnn(C)c4)c23)c(F)c1` [Example 105, 4-(2-fluoro-4-methoxyphenyl)-3-(1-methyl-1H-pyrazol-4-yl)-1H-pyrrolo[2,3-b]pyridine]: the EC50 was found to be 143 nM.
For `Cn1cc(-c2c[nH]c3nccc(-c4ccoc4)c23)cn1` [Example 106, 4-(furan-3-yl)-3-(1-methyl-1H-pyrazol-4-yl)-1H-pyrrolo[2,3-b]pyridine], the EC50 is 144 nM.
For the compound `Cn1cc(-c2c[nH]c3nccc(-c4ccc5scnc5c4)c23)cn1` [Example 107, 5-[3-(1-methyl-1H-pyrazol-4-yl)-1H-pyrrolo[2,3-b]pyridin-4-yl]-1,3-benzothiazole], the EC50 was 169 nM.
Then `Cn1cc(-c2c[nH]c3nccc(-c4cccc(CC#N)c4)c23)cn1` [Example 108, {3-[3-(1-methyl-1H-pyrazol-4-yl)-1H-pyrrolo[2,3-b]pyridin-4-yl]phenyl}acetonitrile], with 185 nM; and `Cn1cc(-c2c[nH]c3nccc(-c4cccc(C#N)c4)c23)cn1` [Example 109, 3-[3-(1-methyl-1H-pyrazol-4-yl)-1H-pyrrolo[2,3-b]pyridin-4-yl]benzonitrile], with 188 nM; and `Cn1cc(-c2c[nH]c3nncc(N4CCOCC4)c23)cn1` [Example 110, 5-(1-methyl-1H-pyrazol-4-yl)-4-(morpholin-4-yl)-7H-pyrrolo[2,3-c]pyridazine], with 201 nM.
Turning to `COCc1cccc(-c2ccnc3[nH]cc(-c4cnn(C)c4)c23)c1` [Example 111, 4-[3-(methoxymethyl)phenyl]-3-(1-methyl-1H-pyrazol-4-yl)-1H-pyrrolo[2,3-b]pyridine], the EC50 amounted to 234 nM.
Then `Cc1nnc(-c2cccc(-c3ccnc4[nH]cc(-c5cccc(C#N)c5)c34)c2)o1` [Example 112, 3-{4-[3-(5-methyl-1,3,4-oxadiazol-2-yl)phenyl]-1H-pyrrolo[2,3-b]pyridin-3-yl}benzonitrile], with 234 nM.
